From patent publication US20150218212A1, “FLUORINATED EPOXYKETONE-BASED TETRAPEPTIDE COMPOUNDS AND USES THEREOF AS PROTEASOME INHIBITORS” (FLUORINOV PHARMA INC., priority 2012, published 2015)

What was measured:
Format in all cases: cell-based, human
COLO 205 = test: NCI screening panel, COLO 205 (Colon Cancer)
Experimental: (§1) Representative compounds of Formula I were screened using the National Cancer Institute (NCI) screening panel, which consists of a panel of human tumor cell lines, representing leukemia, melanoma, and cancers of the lung, colon, ovary, breast, prostate and renal system.
(§2) After 24 h, two plates of each cell line are fixed in situ with TCA, to represent a measurement of the cell population for each cell line at the time of drug addition (Tz). Experimental drugs are solubilised in dimethyl sulfoxide at 400-fold the desired final maximum test concentration and stored frozen prior to use. At the time of drug addition, an aliquot of frozen concentrate is thawed and diluted to twice the desired final maximum test concentration with complete medium containing 50 μg/mL gentamicin. Additional four, 10-fold or ½ log serial dilutions are made to provide a total of five drug concentrations plus control. Aliquots of 100 μl of these different drug dilutions are added to the appropriate microtiter wells already containing 100 μl of medium, resulting in the required final drug concentrations.
(§3) Following drug addition, the plates are incubated for an additional 48 h at 37° C., 5% CO2, 95% air, and 100% relative humidity. For adherent cells, the assay is terminated by the addition of cold TCA (trichloroacetic acid). Cells are fixed in situ by the gentle addition of 50 μl of cold 50% (w/v) TCA (final concentration, 10% TCA) and incubated for 60 minutes at 4° C. The supernatant is discarded, and the plates are washed five times with tap water and air dried. Sulforhodamine B (SRB) solution (100 μl) at 0.4% (w/v) in 1% acetic acid is added to each well, and plates are incubated for 10 minutes at room temperature. After staining, unbound dye is removed by washing five times with 1% acetic acid and the plates are air dried. Bound stain is subsequently solubilised with 10 mM trizma base, and the absorbance is read on an automated plate reader at a wavelength of 515 nm. For suspension cells, the methodology is the same except that the assay is terminated by fixing settled cells at the bottom of the wells by gently adding 50 μl of 80% TCA (final concentration, 16% TCA). Using the seven absorbance measurements [time zero, (Tz), control growth, (C), and test growth in the presence of drug at the five concentration levels (Ti)], the percentage growth is calculated at each of the drug concentrations levels. Percentage growth inhibition is calculated as: [(Ti−Tz)/(C−Tz)]×100 for concentrations for which Ti>/=Tz and [(Ti−Tz)/Tz]×100 for concentrations for which Ti<Tz.
(§4) Three dose response parameters are calculated for each experimental agent. Growth inhibition of 50% (GI50) is calculated from [(Ti−Tz)/(C−Tz)]×100=50, which is the drug concentration resulting in a 50% reduction in the net protein increase (as measured by SRB staining) in control cells during the drug incubation. The drug concentration resulting in total growth inhibition (TGI) is calculated from Ti=Tz. The LC50 (concentration of drug resulting in a 50% reduction in the measured protein at the end of the drug treatment as compared to that at the beginning) indicating a net loss of cells following treatment is calculated from [(Ti−Tz)/Tz]×100=−50. Values are calculated for each of these three parameters if the level of activity is reached. However, if the effect is not reached or is exceeded, the value for that parameter is expressed as greater or less than the maximum or minimum concentration tested.

SF-268 = test: NCI screening panel, SF-268 (CNS Cancer)
Experimental: as §1, §2, §3, §4

BT-549 = test: NCI screening panel, BT-549 (Breast Cancer)
Experimental: as §1, §2, §3, §4

MDA-MB-468 = test: NCI screening panel, MDA-MB-468 (Breast Cancer)
Experimental: as §1, §2, §3, §4

ACHN = test: NCI screening panel, ACHN (Renal Cancer)
Experimental: as §1, §2, §3, §4

HS 578T = test: NCI screening panel, HS 578T (Breast Cancer)
Experimental: as §1, §2, §3, §4

SK-OV-3 = test: NCI screening panel, SK-OV-3 (Ovarian Cancer)
Experimental: as §1, §2, §3, §4

RXF 393 = test: NCI screening panel, RXF 393 (Renal Cancer)
Experimental: as §1, §2, §3, §4

PC-3 = test: NCI screening panel, PC-3 (Prostate Cancer)
Experimental: as §1, §2, §3, §4

OVCAR-4 = test: NCI screening panel, OVCAR-4 (Ovarian Cancer)
Experimental: as §1, §2, §3, §4

NCI/ADR-RES = test: NCI screening panel, NCI/ADR-RES (Ovarian Cancer)
Experimental: as §1, §2, §3, §4

UO-31 = test: NCI screening panel, UO-31 (Renal Cancer)
Experimental: as §1, §2, §3, §4

CAKI-1 = test: NCI screening panel, CAKI-1 (Renal Cancer)
Experimental: as §1, §2, §3, §4

Row | Compound | Log10GI50 (COLO 205) | Log10LC50 (COLO 205) | Log10TGI50 (COLO 205) | Log10GI50 (SF-268) | Log10LC50 (SF-268) | Log10TGI50 (SF-268) | Log10GI50 (BT-549) | Log10LC50 (BT-549) | Log10TGI50 (BT-549) | Log10GI50 (MDA-MB-468) | Log10LC50 (MDA-MB-468) | Log10TGI50 (MDA-MB-468) | Log10GI50 (ACHN) | Log10LC50 (ACHN) | Log10TGI50 (ACHN) | Log10GI50 (HS 578T) | Log10TGI50 (HS 578T) | Log10GI50 (SK-OV-3) | Log10TGI50 (SK-OV-3) | Log10GI50 (RXF 393) | other results
1 | CC(C)C[C@H](NC(=O)[C@H](COC(F)F)NC(=O)CN1CCOCC1)C(=O)N[C@@H](COC(F)F)C(=O)N[C@@H](CC(C)C)C(=O)[C@@]1(C)CO1 [Example 1, (2S)—N-[(1S)-1-(difluoromethoxymethyl)-2-[[(1S)-3-methyl-1-[(2R)-2-methyloxirane-2-carbonyl]butyl]amino]-2-oxo-ethyl]-2-[[(2S)-3-(difluoromethoxy)-2-[(2-morpholinoacetyl)amino]propanoyl]amino]-4-methyl-pentanamide] | −7.39 | −5.59 | −6.72 | −7.65 | >−4.00 | −7.17 | −7.85 | −6.61 | −7.40 | −7.55 | >−4.00 | −6.89 | −6.34 | >−4.00 | >−4.00 | −7.72 | −7.01 | −7.15 | −6.36 | −6.96 | Log10LC50 (HS 578T): >−4.00; Log10LC50 (RXF 393): −6.21; Log10TGI50 (RXF 393): −6.59; Log10GI50 (PC-3): −7.49; Log10TGI50 (PC-3): −6.81; Log10GI50 (OVCAR-4): −7.77; Log10LC50 (OVCAR-4): >−4.00; Log10TGI50 (OVCAR-4): −6.60; Log10GI50 (NCI/ADR-RES): −5.10; Log10LC50 (NCI/ADR-RES): >−4.00; Log10TGI50 (NCI/ADR-RES): >−4.00; Log10GI50 (UO-31): −5.70; Log10LC50 (UO-31): >−4.00; Log10TGI50 (UO-31): −4.86; Log10GI50 (CAKI-1): −6.29; Log10LC50 (CAKI-1): >−4.00; Log10TGI50 (CAKI-1): −5.24
2 | CC(C)C[C@H](NC(=O)[C@H](COC(F)F)NC(=O)CN1CCOCC1)C(=O)N[C@@H](Cc1ccccc1)C(=O)N[C@@H](CC(C)C)C(=O)[C@@]1(C)CO1 [Example 2, (2S)-N-[(1S)-1-benzyl-2-[[(1S)-3-methyl-1-[(2R)-2-methyloxirane-2-carbonyl]butyl]-amino]-2-oxo-ethyl]-2-[[(2S)-3-(difluoromethoxy)-2-[(2-morpholinoacetyl)amino]propanoyl]amino]-4-methyl-pentanamide] | −7.44 | −5.93 | −6.69 | −7.81 | >−4.00 | −7.20 | <−8.00 | −6.84 | −7.48 | −7.75 | −4.63 | −7.13 | −6.71 | >−4.00 | >−4.00 | −7.71 | >−4.00 | −7.15 | −6.21 | −7.52 | Log10LC50 (SK-OV-3): >−4.00; Log10LC50 (RXF 393): −6.41; Log10TGI50 (RXF 393): −6.98; Log10GI50 (PC-3): −7.57; Log10LC50 (PC-3): −5.62; Log10TGI50 (PC-3): −6.93; Log10GI50 (OVCAR-4): −7.84; Log10LC50 (OVCAR-4): >−4.00; Log10TGI50 (OVCAR-4): −6.49; Log10GI50 (NCI/ADR-RES): −5.80; Log10LC50 (NCI/ADR-RES): >−4.00; Log10TGI50 (NCI/ADR-RES): >−4.00; Log10GI50 (UO-31): −6.49; Log10LC50 (UO-31): −5.01; Log10TGI50 (UO-31): −5.80; Log10GI50 (CAKI-1): −6.68; Log10LC50 (CAKI-1): >−4.00; Log10TGI50 (CAKI-1): −5.93
3 | CC(C)C[C@H](NC(=O)[C@H](COC(F)F)NC(=O)CN1CCOCC1)C(=O)N[C@@H](Cc1ccccc1)C(=O)N[C@@H](Cc1ccccc1)C(=O)[C@@]1(C)CO1 [Example 3, (2S)-N-[(1S)-1-benzyl-2-[[(1S)-1-benzyl-2-[(2R)-2-methyloxiran-2-yl]-2-oxo-ethyl]amino]-2-oxo-ethyl]-2-[[(2S)-3-(difluoromethoxy)-2-[(2-morpholinoacetyl)-amino]propanoyl]amino]-4-methyl-pentan-amide] | −7.73 | −4.53 | −6.48 | <−8.00 | −4.98 | −7.40 | <−8.00 | −4.21 | −7.32 | <−8.00 | −6.09 | −7.34 | −7.13 | >−4.00 | >−4.00 | <−8.00 | −7.01 | −7.26 | −6.16 | −7.64 | Log10LC50 (HS 578T): >−4.00; Log10LC50 (SK-OV-3): >−4.00; Log10LC50 (RXF 393): −6.58; Log10TGI50 (RXF 393): −7.18; Log10GI50 (PC-3): −7.73; Log10LC50 (PC-3): −6.09; Log10TGI50 (PC-3): −7.04; Log10GI50 (OVCAR-4): −7.88; Log10TGI50 (OVCAR-4): >−4.00; Log10GI50 (NCI/ADR-RES): −5.86; Log10LC50 (NCI/ADR-RES): >−4.00; Log10TGI50 (NCI/ADR-RES): >−4.00; Log10GI50 (UO-31): −6.65; Log10LC50 (UO-31): −5.08; Log10TGI50 (UO-31): −5.91; Log10GI50 (CAKI-1): −7.11; Log10LC50 (CAKI-1): −4.92; Log10TGI50 (CAKI-1): −6.30
